Experimental data taken from ChEMBL document CHEMBL4665642, “Anticancer profile of newly synthesized BRAF inhibitors possess 5-(pyrimidin-4-yl)imidazo[2,1-b]thiazole scaffold” (Bioorg Med Chem, 2019).

Key:
Format in all cases: functional
Conditions in all cases: read-out: Activity
[1] = test system: MDA-MB-468; test: Cytotoxicity against human MDA-MB-468 cells assessed as cell viability at 10 uM incubated for 48 hrs by sulforhodamine B assay relative to control
[2] = test system: T47D; test: Cytotoxicity against human T47D cells assessed as cell viability at 10 uM incubated for 48 hrs by sulforhodamine B assay relative to control
[3] = test system: BT-549; test: Cytotoxicity against human BT-549 cells assessed as cell viability at 10 uM incubated for 48 hrs by sulforhodamine B assay relative to control
[4] = test system: Hs-578T; test: Cytotoxicity against human HS-578T cells assessed as cell viability at 10 uM incubated for 48 hrs by sulforhodamine B assay relative to control
[5] = test system: MDA-MB-231; test: Cytotoxicity against human MDA-MB-231 cells assessed as cell viability at 10 uM incubated for 48 hrs by sulforhodamine B assay relative to control
[6] = test system: DU-145; test: Cytotoxicity against human DU-145 cells assessed as cell viability at 10 uM incubated for 48 hrs by sulforhodamine B assay relative to control
[7] = test system: UO-31; test: Cytotoxicity against human UO-31 cells assessed as cell viability at 10 uM incubated for 48 hrs by sulforhodamine B assay relative to control
[8] = test system: TK-10; test: Cytotoxicity against human TK-10 cells assessed as cell viability at 10 uM incubated for 48 hrs by sulforhodamine B assay relative to control
[9] = test system: ACHN; test: Cytotoxicity against human ACHN cells assessed as cell viability at 10 uM incubated for 48 hrs by sulforhodamine B assay relative to control
[10] = test system: 786-0; test: Cytotoxicity against human 786-0 cells assessed as cell viability at 10 uM incubated for 48 hrs by sulforhodamine B assay relative to control
[11] = test system: SK-OV-3; test: Cytotoxicity against human SK-OV-3 cells assessed as cell viability at 10 uM incubated for 48 hrs by sulforhodamine B assay relative to control
[12] = test system: NCI/ADR-RES; test: Cytotoxicity against human NCI/ADR-RES cells assessed as cell viability at 10 uM incubated for 48 hrs by sulforhodamine B assay relative to control
[13] = test system: OVCAR-8; test: Cytotoxicity against human OVCAR-8 cells assessed as cell viability at 10 uM incubated for 48 hrs by sulforhodamine B assay relative to control
[14] = test system: OVCAR-5; test: Cytotoxicity against human OVCAR-5 cells assessed as cell viability at 10 uM incubated for 48 hrs by sulforhodamine B assay relative to control
[15] = test system: IGROV-1; test: Cytotoxicity against human IGROV-1 cells assessed as cell viability at 10 uM incubated for 48 hrs by sulforhodamine B assay relative to control
[16] = test system: UACC-257; test: Cytotoxicity against human UACC-257 cells assessed as cell viability at 10 uM incubated for 48 hrs by sulforhodamine B assay relative to control
[17] = test system: SK-MEL-5; test: Cytotoxicity against human SK-MEL-5 cells assessed as cell viability at 10 uM incubated for 48 hrs by sulforhodamine B assay relative to control
[18] = test system: SK-MEL-2; test: Cytotoxicity against human SK-MEL-2 cells assessed as cell viability at 10 uM incubated for 48 hrs by sulforhodamine B assay relative to control
[19] = test system: MDA-MB-435; test: Cytotoxicity against human MDA-MB-435 cells assessed as cell viability at 10 uM incubated for 48 hrs by sulforhodamine B assay relative to control
[20] = test system: M14; test: Cytotoxicity against human M14 cells assessed as cell viability at 10 uM incubated for 48 hrs by sulforhodamine B assay relative to control
[21] = test system: Malme-3M; test: Cytotoxicity against human Malme-3M cells assessed as cell viability at 10 uM incubated for 48 hrs by sulforhodamine B assay relative to control
[22] = test system: CCRF-CEM; test: Cytotoxicity against human CCRF-CEM cells assessed as cell viability at 10 uM incubated for 48 hrs by sulforhodamine B assay relative to control
[23] = test system: HL-60(TB); test: Cytotoxicity against human HL-60(TB) cells assessed as cell viability at 10 uM incubated for 48 hrs by sulforhodamine B assay relative to control
[24] = test system: K562; test: Cytotoxicity against human K562 cells assessed as cell viability at 10 uM incubated for 48 hrs by sulforhodamine B assay relative to control
[25] = test system: RPMI-8226; test: Cytotoxicity against human RPMI-8226 cells assessed as cell viability at 10 uM incubated for 48 hrs by sulforhodamine B assay relative to control
[26] = test system: SR; test: Cytotoxicity against human SR cells assessed as cell viability at 10 uM incubated for 48 hrs by sulforhodamine B assay relative to control
[27] = test system: A549; test: Cytotoxicity against human A549 cells assessed as cell viability at 10 uM incubated for 48 hrs by sulforhodamine B assay relative to control
[28] = test system: NCI-H226; test: Cytotoxicity against human NCI-H226 cells assessed as cell viability at 10 uM incubated for 48 hrs by sulforhodamine B assay relative to control
[29] = test system: NCI-H23; test: Cytotoxicity against human NCI-H23 cells assessed as cell viability at 10 uM incubated for 48 hrs by sulforhodamine B assay relative to control
[30] = test system: NCI-H322M; test: Cytotoxicity against human NCI-H322M cells assessed as cell viability at 10 uM incubated for 48 hrs by sulforhodamine B assay relative to control
[31] = test system: NCI-H460; test: Cytotoxicity against human NCI-H460 cells assessed as cell viability at 10 uM incubated for 48 hrs by sulforhodamine B assay relative to control
[32] = test system: COLO 205; test: Cytotoxicity against human COLO 205 cells assessed as cell viability at 10 uM incubated for 48 hrs by sulforhodamine B assay relative to control
[33] = test system: HCC 2998; test: Cytotoxicity against human HCC 2998 cells assessed as cell viability at 10 uM incubated for 48 hrs by sulforhodamine B assay relative to control
[34] = test system: HCT-15; test: Cytotoxicity against human HCT-15 cells assessed as cell viability at 10 uM incubated for 48 hrs by sulforhodamine B assay relative to control
[35] = test system: SW-620; test: Cytotoxicity against human SW-620 cells assessed as cell viability at 10 uM incubated for 48 hrs by sulforhodamine B assay relative to control
[36] = test system: SF-268; test: Cytotoxicity against human SF-268 cells assessed as cell viability at 10 uM incubated for 48 hrs by sulforhodamine B assay relative to control
[37] = test system: SF-295; test: Cytotoxicity against human SF-295 cells assessed as cell viability at 10 uM incubated for 48 hrs by sulforhodamine B assay relative to control
[38] = test system: SF-539; test: Cytotoxicity against human SF-539 cells assessed as cell viability at 10 uM incubated for 48 hrs by sulforhodamine B assay relative to control
[39] = test system: SNB-75; test: Cytotoxicity against human SNB-75 cells assessed as cell viability at 10 uM incubated for 48 hrs by sulforhodamine B assay relative to control
[40] = test system: U-251; test: Cytotoxicity against human U-251 cells assessed as cell viability at 10 uM incubated for 48 hrs by sulforhodamine B assay relative to control

Structure (SMILES): O=C(NCCNc1nccc(-c2c(-c3cccc(F)c3)nc3sccn23)n1)c1ccccc1
- viability at 10 µM [1]: 57.4%
- viability at 10 µM [2]: 34.5%
- viability at 10 µM [3]: 71.2%
- viability at 10 µM [4]: 64.7%
- viability at 10 µM [5]: 65.1%
- viability at 10 µM [6]: 64.5%
- viability at 10 µM [7]: 22.8%
- viability at 10 µM [8]: 73%
- viability at 10 µM [9]: 29.1%
- viability at 10 µM [10]: 45.4%
- viability at 10 µM [11]: 75.1%
- viability at 10 µM [12]: 64.9%
- viability at 10 µM [13]: 46.8%
- viability at 10 µM [14]: 79.9%
- viability at 10 µM [15]: 16.5%
- viability at 10 µM [16]: 63.1%
- viability at 10 µM [17]: 25.6%
- viability at 10 µM [18]: 51.4%
- viability at 10 µM [19]: 27%
- viability at 10 µM [20]: 28.4%
- viability at 10 µM [21]: 23.7%
- viability at 10 µM [22]: 40.9%
- viability at 10 µM [23]: 83.7%
- viability at 10 µM [24]: 44%
- viability at 10 µM [25]: 45.7%
- viability at 10 µM [26]: 29.4%
- viability at 10 µM [27]: 26.7%
- viability at 10 µM [28]: 44.3%
- viability at 10 µM [29]: 64.9%
- viability at 10 µM [30]: 64.8%
- viability at 10 µM [31]: 28.8%
- viability at 10 µM [32]: 10.4%
- viability at 10 µM [33]: 73.8%
- viability at 10 µM [34]: 34.6%
- viability at 10 µM [35]: 52.3%
- viability at 10 µM [36]: 58.8%
- viability at 10 µM [37]: 71.4%
- viability at 10 µM [38]: 81.2%
- viability at 10 µM [39]: 54.6%
- viability at 10 µM [40]: 59.4%

Structure (SMILES): O=S(=O)(NCCNc1nccc(-c2c(-c3cccc(F)c3)nc3sccn23)n1)c1cccc(F)c1
- viability at 10 µM [1]: 68.6%
- viability at 10 µM [2]: 49.1%
- viability at 10 µM [3]: 81.5%
- viability at 10 µM [4]: 78.3%
- viability at 10 µM [5]: 79%
- viability at 10 µM [6]: 65.1%
- viability at 10 µM [7]: 30.2%
- viability at 10 µM [8]: 88%
- viability at 10 µM [9]: 39.9%
- viability at 10 µM [10]: 63.9%
- viability at 10 µM [11]: 95.8%
- viability at 10 µM [12]: 80.3%
- viability at 10 µM [13]: 60.1%
- viability at 10 µM [14]: 100%
- viability at 10 µM [15]: 24.6%
- viability at 10 µM [16]: 104%
- viability at 10 µM [17]: 53.5%
- viability at 10 µM [18]: 81.8%
- viability at 10 µM [19]: 41.9%
- viability at 10 µM [20]: 69.4%
- viability at 10 µM [21]: 108%
- viability at 10 µM [22]: 63.3%
- viability at 10 µM [23]: 101%
- viability at 10 µM [24]: 48.6%
- viability at 10 µM [25]: 66.8%
- viability at 10 µM [26]: 45.5%
- viability at 10 µM [27]: 42.1%
- viability at 10 µM [28]: 62.5%
- viability at 10 µM [29]: 83.4%
- viability at 10 µM [30]: 77.1%
- viability at 10 µM [31]: 43%
- viability at 10 µM [32]: 45.1%
- viability at 10 µM [33]: 95.5%
- viability at 10 µM [34]: 38.9%
- viability at 10 µM [35]: 75.8%
- viability at 10 µM [36]: 68.6%
- viability at 10 µM [37]: 80.6%
- viability at 10 µM [38]: 95.6%
- viability at 10 µM [39]: 80%
- viability at 10 µM [40]: 60.7%
